Experimental data taken from patent US20250296971A1, “GASTRIC INHIBITORY PEPTIDE RECEPTOR LIGANDS” (priority 2021, published 2025).
Where two headings read alike, the source gives them in different places. *1 amine or outer side, *2 acyl side, *3 side chain or, on linkers, in order; H or OH if unused. Where a SMILES comes first, the peptide text is derived from it. Bridges are numbered along the chain shown (N, C = ends). [ ]: non-standard residue; d: D form. The star is where a group is joined. X3 = O=C(O)CN1CCN(CC(=O)O)CCN(CC(=O)NCCCOCCOCCOCCCN*)CCN(CC(=O)O)CC1; DOTA = O=C(O)CN1CCN(CC(=O)O)CCN(CC(=O)*)CCN(CC(=O)O)CC1; Trp(5-Cl) = N[C@@H](Cc1c[nH]c2ccc(Cl)cc12)C(=O)O; Phe(3,5-Cl2) = N[C@@H](Cc1cc(Cl)cc(Cl)c1)C(=O)O; Pyridine(2,6-diCH2) = c1cc(C[*:1])nc(C[*:2])c1; 1Nal = N[C@@H](Cc1cccc2ccccc12)C(=O)O; mXylylene = c1cc(C[*:1])cc(C[*:2])c1; oXylylene = c1ccc(C[*:2])c(C[*:1])c1; X6 = c1cc(CSCCN[*:2])nc(C[*:1])c1; X7 = c1cc(CSCCN[*:2])cc(C[*:1])c1; Hyp = O=C(O)[C@@H]1C[C@@H](O)CN1; X15 = c1ncc(C[*:1])cc1CSCCN[*:2]; Suc = O=C(CCC(=O)[*:2])[*:1]; Tle = CC(C)(C)[C@H](N)C(=O)O; Thp = NC1(C(=O)O)CCOCC1; Aib = CC(C)(N)C(=O)O

Target: T1, GIPR (CHO-K1-hGIPR cells) (Homo sapiens, UniProt P48546)
T1 construct: host or cells: CHO-K1
T1 sequence (P48546 22-466): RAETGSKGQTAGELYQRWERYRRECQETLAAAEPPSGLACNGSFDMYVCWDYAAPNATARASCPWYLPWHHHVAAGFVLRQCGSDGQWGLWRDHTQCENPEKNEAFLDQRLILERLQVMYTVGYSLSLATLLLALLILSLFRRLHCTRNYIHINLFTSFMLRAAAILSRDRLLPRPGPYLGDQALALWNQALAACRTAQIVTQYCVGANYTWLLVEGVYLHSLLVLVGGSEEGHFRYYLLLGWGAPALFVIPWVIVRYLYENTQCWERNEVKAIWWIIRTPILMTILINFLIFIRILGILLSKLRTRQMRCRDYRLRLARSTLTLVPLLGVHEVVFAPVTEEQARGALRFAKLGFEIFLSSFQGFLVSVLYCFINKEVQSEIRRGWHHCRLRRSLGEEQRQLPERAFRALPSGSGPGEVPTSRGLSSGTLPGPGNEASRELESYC
Test: FACS binding assay
Settings: read-out: pIC50 Category (converted)
Protocol: In order to determine binding of compounds according to the present invention to GIPR-expressing cells, a FACS binding assay was established.
CHO-K1-hGIPR cells (GenScript Biotech, #M00486) were cultured in Ham's F12 medium (Sigma-Aldrich, #N4888) including 10% fetal calf serum (FCS), 2 mM L-glutamine, 100 U/mL penicillin, 100 μg/mL streptomycin, 200 μg/mL Zeocin and 100 μg/mL HygromycinB. Cells were detached with Accutase (Biolegend, #BLD-423201) and washed in FACS buffer (PBS including 1% FCS). Cells were diluted in FACS buffer to a final concentration of 500.000 cells per mL. 200 μL of the cell suspension were transferred to a u-shaped non-binding 96-well plate (Greiner) and cells were washed in ice-cold FACS buffer.
Cells were washed twice in FACS buffer. An additional incubation step with 1 μg/mL APC-Streptavidin (Miltenyi; #130-106-791) in 50 μL FACS buffer for 30 min on ice was performed followed by two washes with FACS buffer.
Cells were analyzed in an Attune NxT flow cytometer. Median fluorescence intensities (MFI) of the APC/Cy5-channel were calculated by Attune NxT software. MFI values were plotted against peptide concentration and four parameter logistic (4PL) curve fitting and EC50/pEC50 or IC50/pIC50 calculations were performed using ActivityBase software.

[1] = competition with 20 nM GIP-057, 4° C. for 1 hour
[2] = competition with 20 nM GIP-057, 4° C., 1 hour

SMILES | IC50 [1] [nM] | IC50 [2] [nM]
CC[C@H](C)[C@@H]1NC(=O)[C@H](CC(C)C)NC(=O)C(C)(C)NC(=O)[C@@H](NC(=O)[C@H](Cc2ccccc2)NC(=O)[C@H](CCC(=O)O)NC(=O)[C@@H]2CCCN2C(=O)[C@H](Cc2cccc3ccccc23)NC(=O)[C@H](Cc2c[nH]c3ccccc23)NC(=O)[C@H](CC(=O)O)NC(C)=O)CSCc2cccc(c2)CSC[C@@H](C(N)=O)NC1=O [GIP-344, Ac-Asp-Trp-1Ni-Pro-Glu-Phe-[Cys(3MeBn)-Aib-Leu-Ile-Cys]-NH2] (Ac-DW[1Nal]PEFC[Aib]LIC-NH2; linker 7-11 via mXylylene) | > 1000 | –
CC[C@H](C)[C@@H]1NC(=O)[C@H](CC(C)C)NC(=O)C2(CCOCC2)NC(=O)[C@@H](NC(=O)[C@@H](CC(C)C)NC(=O)[C@H](CCC(=O)O)NC(=O)[C@@H]2C[C@@H](O)CN2C(=O)[C@H](Cc2c[nH]c3ccc(Cl)cc23)NC(=O)[C@H](Cc2cc(Cl)cc(Cl)c2)NC(=O)[C@H](CC(=O)O)NC(C)=O)CSCc2cccc(n2)CSC[C@@H](C(N)=O)NC1=O [GIP-263, Ac-Asp-Egn-5Clw-Hyp-Glu-leu-[Cys(2Lut)-Thp-Leu-Ile-Cys]-NH2] (Ac-D[Phe(3,5-Cl2)][Trp(5-Cl)][Hyp]E[dL]C[Thp]LIC-NH2; linker 7-11 via Pyridine(2,6-diCH2)) | 10 to 79.4 | –
CC[C@H](C)[C@@H]1NC(=O)[C@H](CC(C)C)NC(=O)[C@H](C)NC(=O)[C@H](NC(=O)[C@H](CC(C)C)NC(=O)[C@H](CCC(=O)O)NC(=O)[C@@H]2CCCN2C(=O)[C@H](Cc2c[nH]c3ccccc23)NC(=O)[C@H](Cc2c[nH]c3ccccc23)NC(=O)[C@H](CC(=O)O)NC(=O)[C@H](Cc2ccc(O)cc2)NC(=O)[C@@H](N)CCSC)CSCc2cccc(c2)CSC[C@@H](C(N)=O)NC1=O [GIP-309] (H-MYDWWPEL[dC]ALIC-NH2; linker 9-13 via mXylylene) | 100 to 794 | –
CC[C@H](C)[C@@H]1NC(=O)[C@H](CC(C)C)NC(=O)[C@H](C)NC(=O)[C@@H](NC(=O)[C@H](CC(C)C)NC(=O)[C@H](CCC(=O)O)NC(=O)[C@@H]2CCCN2C(=O)[C@H](Cc2c[nH]c3ccccc23)NC(=O)[C@H](Cc2c[nH]c3ccccc23)NC(=O)CCC(=O)O)CSCc2cccc(c2)CSC[C@@H](C(N)=O)NC1=O [GIP-255, HO-Succinyl-Trp-Trp-Pro-Glu-Leu-[Cys(3MeBn)-Ala-Leu-Ile-Cys]-NH2] (Suc-WWPELCALIC-NH2; linker 6-10 via mXylylene) | 10 to 79.4 | –
CC[C@H](C)[C@@H]1NC(=O)[C@H](CC(C)C)NC(=O)C2(CCOCC2)NC(=O)[C@@H](NC(=O)[C@@H](CC(C)C)NC(=O)[C@@H](NC(=O)[C@@H]2C[C@@H](O)CN2C(=O)[C@H](Cc2c[nH]c3ccc(Cl)cc23)NC(=O)[C@H](Cc2c[nH]c3ccccc23)NC(=O)[C@H](CC(=O)O)NC(C)=O)C(C)C)CSCc2cccc(n2)CSC[C@@H](C(N)=O)NC1=O [GIP-385, Ac-Asp-Trp-5Clw-Hyp-Val-leu-[Cys(2Lut)-Thp-Leu-Ile-Cys]-NH2] (Ac-DW[Trp(5-Cl)][Hyp]V[dL]C[Thp]LIC-NH2; linker 7-11 via Pyridine(2,6-diCH2)) | < 10 | –
CC[C@H](C)[C@@H]1NC(=O)[C@H](CC(C)C)NC(=O)C(C)(C)NC(=O)[C@@H](NC(=O)[C@@H](CC(C)C)NC(=O)[C@H](CCC(=O)O)NC(=O)[C@@H]2CCCN2C(=O)[C@H](Cc2c[nH]c3ccc(Cl)cc23)NC(=O)[C@H](Cc2c[nH]c3ccccc23)NC(=O)[C@H](CC(=O)O)NC(=O)CCC(=O)NCCCOCCOCCOCCCNC(=O)CN2CCN(CC(=O)O)CCN(CC(=O)O)CCN(CC(=O)O)CC2)CSCc2cccc(n2)CSCCNC1=O [GIP-090, DOTA-Ttds-Asp-Trp-5Clw-Pro-Glu-leu-[Cys(2Lut)-Aib-Leu-Ile-AET]] ({X3-Suc}-DW[Trp(5-Cl)]PE[dL]C[Aib]LI; linker 7-C via X6) | – | < 10
CC[C@H](C)[C@@H]1NC(=O)[C@@H](CC(C)C)NC(=O)[C@H](C)NC(=O)[C@@H](NC(=O)[C@H](CC(C)C)NC(=O)[C@H](CCC(=O)O)NC(=O)[C@@H]2CCCN2C(=O)[C@H](Cc2c[nH]c3ccccc23)NC(=O)[C@H](Cc2c[nH]c3ccccc23)NC(=O)[C@H](CC(=O)O)NC(=O)[C@H](Cc2ccc(O)cc2)NC(=O)[C@@H](N)CCSC)CSCc2ccccc2CSC[C@@H](C(N)=O)NC1=O [GIP-313] (H-MYDWWPELCA[dL]IC-NH2; linker 9-13 via oXylylene) | 100 to 794 | –
CC(=O)N[C@@H](CC(=O)O)C(=O)N[C@@H](Cc1c[nH]c2ccccc12)C(=O)N[C@@H](Cc1c[nH]c2ccc(Cl)cc12)C(=O)N1C[C@H](O)C[C@H]1C(=O)N[C@@H](CCC(=O)O)C(=O)N[C@H](CC(C)C)C(=O)N[C@H]1CSCc2cccc(n2)CSC[C@@H](C(N)=O)NC(=O)[C@H](C(C)(C)C)NC(=O)[C@H](CC(C)C)NC(=O)C2(CCOCC2)NC1=O [GIP-238, Ac-Asp-Trp-5Clw-Hyp-Glu-leu-[Cys(2Lut)-Thp-Leu-Tle-Cys]-NH2] (Ac-DW[Trp(5-Cl)][Hyp]E[dL]C[Thp]L[Tle]C-NH2; linker 7-11 via Pyridine(2,6-diCH2)) | – | < 10
CC[C@H](C)[C@@H]1NC(=O)[C@H](CC(C)C)NC(=O)C2(CCOCC2)NC(=O)[C@@H](NC(=O)[C@@H](CC(C)C)NC(=O)[C@H](CCC(=O)O)NC(=O)[C@@H]2C[C@@H](O)CN2C(=O)[C@H](Cc2c[nH]c3ccc(Cl)cc23)NC(=O)[C@H](Cc2c[nH]c3ccccc23)NC(=O)[C@H](CC(=O)O)NC(=O)CCC(=O)NCCCOCCOCCOCCCNC(=O)CN2CCN(CC(=O)O)CCN(CC(=O)O)CCN(CC(=O)O)CC2)CSCc2cccc(n2)CSC[C@@H](C(=O)N[C@@H](CCCCNC(=O)CN2CCN(CC(=O)O)CCN(CC(=O)O)CCN(CC(=O)O)CC2)C(N)=O)NC1=O [GIP-054, DOTA-Ttds-Asp-Trp-5Clw-Hyp-Glu-leu-[Cys(2Lut)-Thp-Leu-Ile-Cys]-Lys(DOTA)-NH2] ({X3-Suc}-DW[Trp(5-Cl)][Hyp]E[dL]C[Thp]LICK(DOTA)-NH2; linker 7-11 via Pyridine(2,6-diCH2)) | – | < 10
CC[C@H](C)[C@@H]1NC(=O)[C@H](CC(C)C)NC(=O)C2(CCOCC2)NC(=O)[C@@H](NC(=O)[C@@H](CC(C)C)NC(=O)[C@H](CCC(=O)O)NC(=O)[C@@H]2C[C@@H](O)CN2C(=O)[C@H](Cc2c[nH]c3ccc(Cl)cc23)NC(=O)[C@H](Cc2c[nH]c3ccccc23)NC(=O)[C@H](CCC(=O)O)NC(C)=O)CSCc2cccc(n2)CSC[C@@H](C(N)=O)NC1=O [GIP-191, Ac-Asn-Trp-5Clw-Hyp-Glu-leu-[Cys(2Lut)-Thp-Leu-Ile-Cys]-NH2] (Ac-EW[Trp(5-Cl)][Hyp]E[dL]C[Thp]LIC-NH2; linker 7-11 via Pyridine(2,6-diCH2)) | – | < 10
CC[C@H](C)[C@@H]1NC(=O)[C@H](C)NC(=O)[C@H](C)NC(=O)[C@@H](NC(=O)[C@H](CC(C)C)NC(=O)[C@H](CCC(=O)O)NC(=O)[C@@H]2CCCN2C(=O)[C@H](Cc2c[nH]c3ccccc23)NC(=O)[C@H](Cc2c[nH]c3ccccc23)NC(=O)[C@H](CC(=O)O)NC(=O)[C@H](Cc2ccc(O)cc2)NC(=O)[C@@H](N)CCSC)CSCc2cccc(c2)CSC[C@@H](C(N)=O)NC1=O [GIP-312] (H-MYDWWPELCAAIC-NH2; linker 9-13 via mXylylene) | 100 to 794 | –
CC[C@H](C)[C@@H]1NC(=O)[C@H](CC(C)C)NC(=O)C(C)(C)NC(=O)[C@@H](NC(=O)[C@@H](CC(C)C)NC(=O)[C@H](CCC(=O)O)NC(=O)[C@@H]2C[C@@H](O)CN2C(=O)[C@H](Cc2c[nH]c3ccc(Cl)cc23)NC(=O)[C@H](Cc2c[nH]c3ccccc23)NC(=O)[C@H](CC(=O)O)NC(=O)CCC(=O)NCCCOCCOCCOCCCNC(=O)CN2CCN(CC(=O)O)CCN(CC(=O)O)CCN(CC(=O)O)CC2)CSCc2cccc(c2)CSCCNC1=O [GIP-094, DOTA-Ttds-Asp-Trp-5Clw-Hyp-Glu-leu-[Cys(3MeBn)-Aib-Leu-Ile-AET]] ({X3-Suc}-DW[Trp(5-Cl)][Hyp]E[dL]C[Aib]LI; linker 7-C via X7) | – | < 10
CC[C@H](C)[C@@H]1NC(=O)[C@H](CC(C)C)NC(=O)C(C)(C)NC(=O)[C@@H](NC(=O)[C@@H](CC(C)C)NC(=O)[C@H](CCC(=O)O)NC(=O)[C@@H]2CCCN2C(=O)[C@H](Cc2c[nH]c3ccc(Cl)cc23)NC(=O)[C@H](Cc2c[nH]c3ccccc23)NC(=O)[C@H](CC(=O)O)NC(=O)CCC(=O)NCCCOCCOCCOCCCNC(=O)CN2CCN(CC(=O)O)CCN(CC(=O)O)CCN(CC(=O)O)CC2)CSCc2cncc(c2)CSCCNC1=O [GIP-091, DOTA-Ttds-Asp-Trp-5Clw-Pro-Glu-leu-[Cys(3Lut)-Aib-Leu-Ile-AET]] ({X3-Suc}-DW[Trp(5-Cl)]PE[dL]C[Aib]LI; linker 7-C via X15) | – | < 10
